Where two headings read alike, the source gives them in different places.
Assays:
[1] = tested on: metrazol induced convulsions and death; assay: Metrazol anticonvulsant test (prevention of convulsions and/or death); format: in vivo, mice; conditions: for ED100: mice, one hour before s.c. metrazol (80 mg/kg), 30 minutes observation, TVA16 i.p.
Experimental: A test sample of TVA16 was administered i.p. (0.01 to 100 mg/kg) to a group of three mice, one hour before an s.c. dose of metrazol (80 mg/kg). An effective dose was the amount which prevented convulsions (scored 2 points per animal) and/or death (scored 1 point per animal) in the subsequent 30 minutes.

[2] = tested on: lymphocytes from donor blood and from the blood of an asthmatic patient; assay: Intracellular free [Ca2+]i by flow cytometry with fluo-3/AM; format: cell-based, human; conditions: in either stimulated or untreated cells
Experimental: Intracellular free [Ca^2+]i content was monitored by flow cytometry using the Ca^2+-sensitive dye fluo-3/AM (Molecular Probe Inc., OR)(Minta, Kao and Tsien, 1989, J. Biol. Chem. 264:8171-8178). Cells obtained from donor blood and those from the blood of an asthmatic patient were further washed twice in DMEM and resuspended to a concentration of 10^7 cells/ml. Fluo-3/AM (1 mM) was prepared in DMSO augmented with the nonionic surfactant Pluronic F-127 (Wyandotte Corp., Mich.). Aliquots of fluo-3/AM stock solution were added to cell suspensions in DMEM/HEPES at a final concentration of 3 μM (loading buffer). Loading was allowed to proceed for 30 min. at 37° C. and continued for 1 hour at 23° C. with gentle agitation. Cells were then adjusted to desired concentrations using fresh DMEM/HEPES, supplemented with 2% horse serum. Autofluorescence was eliminated by setting the threshold sensitivity above the levels obtained in absence of dye. Fluorescence intensity data was collected from 5000 single cells and values were expressed as arbitrary fluorescence units. Prodrug-1 (1 mM) was prepared in DMSO and added when appropriate at a final concentration of 3 μM to the cells for 5 min. prior to calcium treatment.
Lymphocytes from donor blood and from the blood of an asthmatic patient were exposed to prodrug-1. […]

[3] = tested on: isolated hearts from pilocarpine-treated rats; assay: Perfusion-Hypoxia-Reperfusion isolated Langendorff heart from pilocarpine-treated rats; design: species or system Sprague-Dawley rats; conditions: treatment prior to pilocarpine; initial and final periods of perfusion
Experimental: (§1) Adult (2-3 months) male Sprague-Dawley rats were used for all experiments. They were fed with standard briquette chow with water ad libitum and were maintained in standard plastic cages (4-5 individuals in each cage) under natural illumination. A pilocarpine-scopolamine epileptic status model (pilocarpine) was performed as described earlier. In a group of 23 rats, pilocarpine was administered i.p. in different doses which ranged from 100 to 400 mg/kg body weight (B/W) for different periods of time; a second group of 17 rats was treated with DP16 prior to pilocarpine administration, wherein the DP16 was injected for 30 min before pilocarpine in the next dose range and its effect was investigated in the ensuing periods.
(§2) In vivo ECG (Birtcher-Cardio-Tracer, model 375, USA) in three standard leads were recorded under ketamine anesthesia (3.3 mg/ky Imalgene 100, Rhone Merieux, France and 7 mg/kg Rompun, Bayer Leverkusen, Germany, i.m.). […] In the case of constant PP the volume of effluent flow was measured on electron balance (Precisa 1000C-3000D, Switzerland). […] Direct ECG were recorded from ventricular apex (lead 1), auriculum (lead 2) and in-between (lead 3). The coronary vessel's perfusion resistance (CVPR) was calculated in arbitrary units as follows: PP/flow/heart weight. […]

[4] = tested on: isoproterenol induced myocardial damage; assay: Isoproterenol induced myocardial damage; format: in vivo, Sprague-Dawley rats
Experimental: Administration of the potent β-adrenoreceptor agonist isoproterenol (ISO) is commonly accepted model of experimental myocardial pathology. The cardioprotective effect of DP16 was tested on 82 Sprague-Dawley female rats weighing 250-350 g. Myocardial damage was induced in rats by two consecutive injections of ISO ([…], s.c.). When appropriate, the injections of ISO were followed in 30 and 180 minutes by DP16 (0.01 μg/kg, i.p.). The effect of DP16 was estimated by ECG analysis and determination of serum glutamate-oxaloacetate transaminase (SGOT) and lactatdehydrogenase (LDH) activity. Mortality of control rats after ISO intervention was 17.1±5.9% (7 out of 41). […] Pathological signs on ECG were aggravated during the experimental period. […] Administration of DP16 decreased mortality in 2 cases (2 out of 30). […] Pathological displacement of the ST-segment was found only on 28 and 40% of ECG (in 24 and in 48 hours following ISO respectively).

[5] = tested on: pilocarpine induced epileptic seizures; assay: Pilocarpine based model of experimental epilepsy; format: in vivo, rats
Experimental: Acetylcholine, acetylcholinesterase inhibitors and acetylcholine analogues are effective epileptogenic agents when applied intracerebrally or systematically (see ref. in Leite et al., Neurosci. & Biobeh. Rev., 1990, 14:511-17). […] Systemic injections of the pilocarpine, a potent muscarinic cholinergic agonist, are capable of producing a sequence of behavioral alterations including stirring spells, facial automatisms and motor limbic seizures, that develop over 1-2 hours and build progressively into limbic status and following by general status epilepticus.
Immediately following injection of pilocarpine, akinesia, ataxic lurching, facial automatism and […] dominated the animals' behavior. Further development of epileptic events is dose-dependent. Administration of pilocarpine in doses of 300-350 mg/kg causes appearance of limbic seizures with rearing, forelimb clonus, salivation, intense masticatory jaw movements and falling. Motor limbic seizures commenced after 20-30 min., recurred every 2-8 min and lead to status epilepticus. Increase of the dose of pilocarpine up-to 400mg/kg abolished limbic seizures and after 15-25 min of initial behavioral alterations causes fatal general tonic-clonic convulsions. We consider this dose as the LD100.

[6] = tested on: post-pilocarpine-seizure-cardiopathy (PSCP); assay: Post-pilocarpine-seizure cardiopathy (PSCP) model, in vivo ECG; design: species or system Sprague-Dawley rats
Experimental: as §1, §2

[7] = tested on: rat model of permanent cerebral ischemia; assay: Bilateral permanent cerebral ischemia model (common carotid artery ligation); format: in vivo; conditions: rats, i.p. 0.001-0.1 mg/kg following artery ligation; p<0.01; FIG. 2
Experimental: Bilateral ligation of the common carotid arteries is the simplest and most direct approach for inducing permanent partial ischemia. In the rats there is almost 64% mortality 24 h later. The causes of mortality are largely brain swelling (edema) and focal lesions (infarcts). Permanent partial global is achieved by isolation of the common carotid artery through an incision on the ventral surface of the neck. The salivary glands are moved laterally and the carotid sheath exposed. Both the vagus and sympathetic nerves are separated from the common carotid artery, which is then permanently ligated. Sprague-Dawley rats (250-300 g) were anesthetized with halothane or by intramuscular injection of 0.1 ml Ketamine (0.1 g/ml, Parke Davis UK) and 0.1 ml Rompun (2%, Bayer, FRG) per 300 g body weight. DP16 was administered intraperitoneally (i.p., 0.001-0.1 mg/kg) when appropriate following the artery ligation. Every experimental and control group included 14 male rats. Statistical analysis was performed according to t-test criteria.

rat hearts = assay: Ex-vivo rat heart Low-flow-Reperfusion Langendorff model
Excerpt: Low-flow Reperfusion Langendorff's heart (Meely and Rovetto, 1975, METHODS IN ENZYMOLOGY, v39:43-60) is an established ex vivo model of a human ischemic heart. A severe decrease in perfusion pressure (PP) below 20 mm Hg (low-flow period) causes sinus bradycardia culminating by stable AV block (“AVB”; 10 out of 11 hearts) frequently followed by ventricular arythmia. Restoration of perfusion pressure causes paroxysmal tachyarrhythmia followed by irreversable ventricular fibrillation (VF).
The experiments were preformed ex vivo on 39 rat hearts. Heart electrical activity and perfusion pressure were stable following 15 min., each. Perfusion buffer was supplemented with DP16 (1.0 μg/l) following the stable AV block during low flow perfusion and during the Reperfusion period.
The experimental protocol documented by FIG. 16 included periods of Normal Coronary Flow (FIG. 6, NF, panel 1) followed by Low-Flow (LF) and then by Normal flow-reperfusion (NF-Rp) (panels 2 and 3, respectively).
The experiments were performed by addition of DP16 (0.5-500 μg/l) to the perfusion buffer after AV block establishment.

[8] = tested on: metrazol induced seizures (myoclonic jerks); assay: Metrazol minimal seizures test; format: in vivo, BALB/c mice; conditions: 30 min before Metrazol s.c.
Experimental: Testing of DP16 as a possible antiepileptic drug was performed on 3-4 week old male BALB/c mice (18-27 g). Animals were maintained on an adequate diet and allowed free access to food and water except briefly during the experimental period. Animals were separately housed for one hour in transparent plastic cages before treatment and during the experimental period. Drugs were dissolved in normal saline with injection volume adjusted to 0.01 ml/g of body weight. DP16 was administered i.p., in doses ranging from 0.1 to 300 μg/kg: (0.1 μg/kg: n=10, 5 μg/kg: n=10, 25 μg/kg: n=20, 75 μg/kg: n=20, 150 μg/kg: n=20, and 300 μg/kg: n=10 animals respectively). Control animals received injections i.p. of normal saline. DP16 or saline administration followed in 30 minutes by Metrazol ([…], s.c.). […] Absence or relative delay of myoclonic jerks (MJ) in the experimental group was considered as indication of possible antiepileptic activity. Data were subjected to chi-square analysis with the computer statistic package “StatViewII”,

CCCCCCCCCCCCCCCC(=O)OCC(COP(=O)([O-])OCC[N+](C)(C)C)OC(=O)C(CCC)CCC (stereo not drawn) [TVA16]
dose response curve compared to valproic acid itself ([1]; FIG. 8, doses as mg of valproic acid per kg body weight): improvement
potency relative to sodium valproate ([1]; from Table 1): more than 500 ×
ED100 [1]: 20 mg/kg

CCC1(c2ccccc2)C(=O)NC(=O)NC1=O [phenobarbital]
ED100 ([1]; Mus musculus, read-out: ED100): 50 mg/kg

O=C(O)CN(CC(=O)O)c1ccccc1OCCOc1ccccc1N(CC(=O)O)CC(=O)O [BAPTA, 1,2-bis-(2-aminophenoxy)ethane-N,N,N′,N′-tetraacetic acid]
reducing the intracellular calcium levels [2]: ineffective

CN1C(=O)CN=C(c2ccccc2)c2cc(Cl)ccc21 [diazepam]
ED100 ([1]; Mus musculus, read-out: ED100): 2.5 mg/kg

C[C@]12N[C@H](Cc3ccccc31)c1ccccc12 [MK-801]
ED100 ([1]; Mus musculus, read-out: ED100): 0.5 mg/kg

CCCCCCCCCCCCCCCC(=O)OCC(COP(=O)([O-])OCC[N+](C)(C)C)OC(=O)CN(CC(=O)O)c1ccccc1OCCOc1ccccc1N(CC(=O)O)CC(=O)O (stereo not drawn) [DP16]
coronary vessel's perfusion resistance (CVPR) regulation [3]: prevents damage of CVPR regulation
percentage of animals exhibiting abnormal level of SGOT and LDH activity ([4]; 0.01 μg/kg i.p.): substantially decreased
mortality ([4]; 0.01 μg/kg i.p. 30 and 180 minutes after ISO, control 7 out of 41): 2 out of 30
pathological displacement of the ST-segment, share of ECG ([4]; 24 hours following ISO): 28%
pathological displacement of the ST-segment, share of ECG ([4]; 48 hours following ISO): 40%
dose range with dose dependent therapeutic effects ([5]; FIG. 4, reduction in fatal seizures): 10^−8 to 10^−5 mg/kg
effect on death and epileptiform manifestations ([5]; administered prior to pilocarpine): prevented death in the animals and decreased epileptiform manifestations
estimated therapeutic index (ET) ([5]; pilocarpine 400 mg/kg, rats, 0.5 mg/kg/5×10^−7 mg/kg): 1×10^6
ECG alterations in the phase of stabilization ([6]; 3-14 days after pilocarpine, p<0.01 vs not protected): prevents the appearance of ECG alterations
normalized electrical activity (ECG) at the acute stage of PSCP ([6]; DP16 prior to pilocarpine, 24h after pilocarpine): 5 out of 7
decrease of post-ischemic mortality compared with control [7]: 250%
complete restoration of AV synchronism (rat hearts; 1.0 μg/l in perfusion buffer after AV block establishment): 11 out of 16
decreased level of AVB and prevented ventricular fibrillation (rat hearts; 1.0 μg/l, additional cases of the 16 experiments): 5 cases
efficiency in resolving atrio-ventricular blockade and preventing ventricular fibrillation compared to BAPTA and BAPTA-AM (rat hearts; FIG. 7): much better efficiency
full restoration of the sinus rhythm during reperfusion (rat hearts; reperfusion period): 11 out of 16
response to metrazol (myoclonic jerks) ([8]; 0.1 μg/kg i.p.): same response to metrazol as control
response to metrazol (myoclonic jerks) ([8]; 5 to 300 μg/kg i.p., p<0.001): significant protective effect

CCCC(C)(COC(N)=O)COC(N)=O [meprobamate]
ED100 ([1]; Mus musculus, read-out: ED100): 200 mg/kg

CCC1(c2ccccc2)CCC(=O)NC1=O (stereo not drawn) [glutethimide]
ED100 ([1]; Mus musculus, read-out: ED100): 150 mg/kg

CC[C@@H]1C(=O)OC[C@@H]1Cc1cncn1C [pilocarpine, reference compound]
LD100 (fatal general tonic-clonic convulsions) ([5]; rats): 400 mg/kg

From patent US6355629B2, “Prodrugs with enhanced penetration into cells” (D-Pharm Ltd., priority 1993, dated 2002)
